According to the supplement of paper PMC10307832:

Tests used:
Assay in all cases: relative viability (nuclei count vs DMSO), 5 days (fraction); higher = more cells survive
RERF-LC-KJ = test system: RERF-LC-KJ
Method in brief: (§1)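 One day after seeding in 1536-well plates, lung cancer cell lines were dosed by pin tool. Dosing was either single-drug or a fixed anchor-drug dose plus five library-drug doses (not always all listed) in √10 steps. After 5 days, nuclei were stained in one fix-and-stain step and counted on 4× images, and relative viability is the nuclei count of treated wells over that of vehicle wells, given as the median of duplicate plates.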

PC-3 [JPC-3] = test system: PC-3 [JPC-3]
Method in brief: as §1

LK-2 = test system: LK-2
Method in brief: as §1

COR-L23 = test system: COR-L23
Method in brief: as §1

NCI-H23 = test system: NCI-H23
Method in brief: as §1

NCI-H1793 = test system: NCI-H1793
Method in brief: as §1

UMC-11 = test system: UMC-11
Method in brief: as §1

A-427 = test system: A-427
Method in brief: as §1

HCC-78 = test system: HCC-78
Method in brief: as §1

NCI-H647 = test system: NCI-H647
Method in brief: as §1

NCI-H520 = test system: NCI-H520
Method in brief: as §1

NCI-H2347 = test system: NCI-H2347
Method in brief: as §1

NCI-H1651 = test system: NCI-H1651
Method in brief: as §1

HARA = test system: HARA
Method in brief: as §1

NCI-H838 = test system: NCI-H838
Method in brief: as §1

LXF-289 = test system: LXF-289
Method in brief: as §1

201T = test system: 201T
Method in brief: as §1

NCI-H2405 = test system: NCI-H2405
Method in brief: as §1

LCLC-97TM1 = test system: LCLC-97TM1
Method in brief: as §1

LOU-NH91 = test system: LOU-NH91
Method in brief: as §1

LCLC-103H = test system: LCLC-103H
Method in brief: as §1

Work on `Nc1cccc2c1CN(C1CCC(=O)NC1=O)C2=O` (stereo unspecified) [Lenalidomide] + Cc1nc(NC(=O)N2CCC[C@H]2C(N)=O)sc1-c1ccnc(C(C)(C)C(F)(F)F)c1 [Alpelisib] (partner 2 µM) yielded a relative viability (RERF-LC-KJ; first compound 0.253 µM) of 0.624, a relative viability (RERF-LC-KJ; first compound 0.8 µM) of 0.904 and a relative viability (RERF-LC-KJ; first compound 2.53 µM) of 0.752. It also gave a relative viability (RERF-LC-KJ; first compound 8 µM) of 0.637, a relative viability (PC-3 [JPC-3]; first compound 0.253 µM) of 0.992 and a relative viability (PC-3 [JPC-3]; first compound 0.8 µM) of 0.981. For the same compound, the relative viability (PC-3 [JPC-3]; first compound 2.53 µM) was 1.09, the relative viability (PC-3 [JPC-3]; first compound 8 µM) was 1.05 and the relative viability (LK-2; first compound 0.253 µM) was 1.11. It also gave a relative viability (LK-2; first compound 2.53 µM) of 1.09, a relative viability (LK-2; first compound 8 µM) of 1.03 and a relative viability (COR-L23; first compound 0.253 µM) of 0.798. The relative viability (COR-L23; first compound 0.8 µM) was 0.794, the relative viability (COR-L23; first compound 2.53 µM) was 0.784 and the relative viability (COR-L23; first compound 8 µM) was 0.875. It also gave a relative viability (NCI-H23; first compound 0.253 µM) of 0.792, a relative viability (NCI-H23; first compound 0.8 µM) of 0.581 and a relative viability (NCI-H23; first compound 2.53 µM) of 0.846. It also gave a relative viability (NCI-H23; first compound 8 µM) of 0.47, a relative viability (NCI-H1793; first compound 0.253 µM) of 0.858 and a relative viability (NCI-H1793; first compound 0.8 µM) of 0.828. It also gave a relative viability (NCI-H1793; first compound 2.53 µM) of 0.673, a relative viability (NCI-H1793; first compound 8 µM) of 0.57 and a relative viability (UMC-11; first compound 0.253 µM) of 1.05. The relative viability (UMC-11; first compound 0.8 µM) was 0.961, the relative viability (UMC-11; first compound 2.53 µM) was 1.03 and the relative viability (UMC-11; first compound 8 µM) was 0.958. The relative viability (A-427; first compound 0.253 µM) was 1.11, the relative viability (A-427; first compound 2.53 µM) was 1.09 and the relative viability (A-427; first compound 8 µM) was 1.02. It also gave a relative viability (HCC-78; first compound 0.253 µM) of 0.381, a relative viability (HCC-78; first compound 0.8 µM) of 0.339 and a relative viability (HCC-78; first compound 2.53 µM) of 0.314. For the same compound, the relative viability (HCC-78; first compound 8 µM) was 0.209, the relative viability (NCI-H647; first compound 0.253 µM) was 1.22 and the relative viability (NCI-H647; first compound 0.8 µM) was 1.14. It also gave a relative viability (NCI-H647; first compound 2.53 µM) of 1.1, a relative viability (NCI-H647; first compound 8 µM) of 1.12 and a relative viability (NCI-H520; first compound 0.253 µM) of 0.88. For the same compound, the relative viability (NCI-H520; first compound 0.8 µM) was 0.922, the relative viability (NCI-H520; first compound 2.53 µM) was 1.15 and the relative viability (NCI-H520; first compound 8 µM) was 0.779. The relative viability (NCI-H2347; first compound 0.253 µM) was 1.06, the relative viability (NCI-H2347; first compound 0.8 µM) was 0.957 and the relative viability (NCI-H2347; first compound 2.53 µM) was 0.964. For the same compound, the relative viability (NCI-H2347; first compound 8 µM) was 0.875, the relative viability (NCI-H1651; first compound 0.253 µM) was 0.894 and the relative viability (NCI-H1651; first compound 0.8 µM) was 1.14. For the same compound, the relative viability (NCI-H1651; first compound 2.53 µM) was 1.04, the relative viability (NCI-H1651; first compound 8 µM) was 1.07 and the relative viability (HARA; first compound 0.253 µM) was 0.782. The relative viability (HARA; first compound 0.8 µM) was 0.771, the relative viability (HARA; first compound 2.53 µM) was 0.921 and the relative viability (HARA; first compound 8 µM) was 0.743. The relative viability (NCI-H838; first compound 0.253 µM) was 0.97, the relative viability (NCI-H838; first compound 0.8 µM) was 1 and the relative viability (NCI-H838; first compound 2.53 µM) was 1.25. It also gave a relative viability (NCI-H838; first compound 8 µM) of 0.896, a relative viability (LXF-289; first compound 0.253 µM) of 1.05 and a relative viability (LXF-289; first compound 0.8 µM) of 1.05. The relative viability (LXF-289; first compound 2.53 µM) was 1.11, the relative viability (LXF-289; first compound 8 µM) was 1.08 and the relative viability (201T; first compound 0.253 µM) was 1.11. It also gave a relative viability (201T; first compound 0.8 µM) of 1.15, a relative viability (201T; first compound 2.53 µM) of 1.06 and a relative viability (201T; first compound 8 µM) of 0.984. It also gave a relative viability (NCI-H2405; first compound 0.253 µM) of 0.672, a relative viability (NCI-H2405; first compound 0.8 µM) of 0.83 and a relative viability (NCI-H2405; first compound 2.53 µM) of 0.843. For the same compound, the relative viability (NCI-H2405; first compound 8 µM) was 0.563, the relative viability (LCLC-97TM1; first compound 0.8 µM) was 0.236 and the relative viability (LCLC-97TM1; first compound 2.53 µM) was 0.308. It also gave a relative viability (LCLC-97TM1; first compound 8 µM) of 0.164, a relative viability (LOU-NH91; first compound 0.253 µM) of 0.686 and a relative viability (LOU-NH91; first compound 0.8 µM) of 0.762. It also gave a relative viability (LOU-NH91; first compound 2.53 µM) of 0.73, a relative viability (LOU-NH91; first compound 8 µM) of 0.662 and a relative viability (LCLC-103H; first compound 0.253 µM) of 0.993. For the same compound, the relative viability (LCLC-103H; first compound 0.8 µM) was 1, the relative viability (LCLC-103H; first compound 2.53 µM) was 0.862 and the relative viability (LCLC-103H; first compound 8 µM) was 0.674.
